According to patent US20160158317A1, “Antimicrobial Peptide Variants and Polynucleotides Encoding Same” (Adenium Biotech A/S, priority 2010, published 2016):
Where a SMILES comes first, the peptide text is derived from it. Bridges are numbered along the chain shown (N, C = ends).

Assay: Determination of the protein binding (90% serum, 30 kDa filter, HPLC)
Type: in vitro ADME
Conditions: serum
Description: Protein binding assays were performed as follows. The purified peptides were mixed with 90% serum and centrifuged through a 30 kDa filter. The ultra-filtrate and the non filtrated serum samples were quantified by HPLC measurements and the protein binding was subsequently calculated.

| SMILES | fraction unbound |
| --- | --- |
| CC(C)[C@@H]1NC(=O)CNC(=O)[C@H](CC(N)=O)NC(=O)[C@H](CCCNC(=N)N)NC(=O)[C@H](Cc2ccc(O)cc2)NC(=O)[C@H](C(C)C)NC(=O)[C@@H]2CSSC[C@H](NC(=O)[C@H](C(C)C)NC(=O)[C@H](CCCNC(=N)N)NC1=O)C(=O)N[C@@H](Cc1ccc(O)cc1)C(=O)N[C@@H](CCCNC(=N)N)C(=O)N[C@@H](CCCNC(=N)N)C(=O)N[C@H](C(=O)N[C@@H](CC(N)=O)C(=O)O)CSSC[C@H](NC(=O)[C@H](C)NC(=O)CN)C(=O)N[C@@H](Cc1c[nH]c3ccccc13)C(=O)N[C@@H](Cc1ccc(O)cc1)C(=O)N[C@@H](C(C)C)C(=O)N2 [compound 3] (H-GACWYVCVYRNGVRVCYRRCN-OH; disulfide 3-20, 7-16 (inferred); N-terminus and C-terminus assumed) | 0.14 |
| CC(C)[C@@H]1NC(=O)CNC(=O)[C@H](CC(N)=O)NC(=O)[C@H](CCCNC(=N)N)NC(=O)[C@H](Cc2ccc(O)cc2)NC(=O)[C@H](C(C)C)NC(=O)[C@@H]2CSSC[C@H](NC(=O)[C@H](C(C)C)NC(=O)[C@H](CCCNC(=N)N)NC1=O)C(=O)N[C@@H](Cc1ccc(O)cc1)C(=O)N[C@@H](CCCNC(=N)N)C(=O)N[C@@H](CCCNC(=N)N)C(=O)N[C@H](C(=O)N[C@@H](CC(N)=O)C(=O)O)CSSC[C@H](NC(=O)[C@H](Cc1ccccc1)NC(=O)CN)C(=O)N[C@@H](C)C(=O)N[C@@H](Cc1ccc(O)cc1)C(=O)N[C@@H](C(C)C)C(=O)N2 [compound 4] (H-GFCAYVCVYRNGVRVCYRRCN-OH; disulfide 3-20, 7-16 (inferred); N-terminus and C-terminus assumed) | 0.11 |
| CC(C)[C@@H]1NC(=O)CNC(=O)[C@H](CC(N)=O)NC(=O)[C@H](CCCNC(=N)N)NC(=O)[C@H](Cc2ccc(O)cc2)NC(=O)[C@H](C(C)C)NC(=O)[C@@H]2CSSC[C@H](NC(=O)[C@H](C(C)C)NC(=O)[C@H](CCCNC(=N)N)NC1=O)C(=O)N[C@@H](Cc1ccc(O)cc1)C(=O)N[C@@H](CCCNC(=N)N)C(=O)N[C@@H](CCCNC(=N)N)C(=O)N[C@H](C(=O)N[C@@H](CC(N)=O)C(=O)O)CSSC[C@H](NC(=O)[C@H](Cc1ccccc1)NC(=O)CN)C(=O)N[C@@H](CO)C(=O)N[C@@H](Cc1ccc(O)cc1)C(=O)N[C@@H](C(C)C)C(=O)N2 [compound 7] (H-GFCSYVCVYRNGVRVCYRRCN-OH; disulfide 3-20, 7-16 (inferred); N-terminus and C-terminus assumed) | 0.32 |
| CC(C)[C@@H]1NC(=O)CNC(=O)[C@H](CC(N)=O)NC(=O)[C@H](CCCNC(=N)N)NC(=O)[C@H](Cc2ccc(O)cc2)NC(=O)[C@H](C(C)C)NC(=O)[C@@H]2CSSC[C@H](NC(=O)[C@H](C(C)C)NC(=O)[C@H](CCCNC(=N)N)NC1=O)C(=O)N[C@@H](Cc1ccc(O)cc1)C(=O)N[C@@H](CCCNC(=N)N)C(=O)N[C@@H](CCCNC(=N)N)C(=O)N[C@H](C(=O)N[C@@H](CC(N)=O)C(=O)O)CSSC[C@H](NC(=O)[C@H](Cc1ccccc1)NC(=O)CN)C(=O)N[C@@H](Cc1c[nH]c3ccccc13)C(=O)N[C@@H](CCCCN)C(=O)N[C@@H](C(C)C)C(=O)N2 [compound 10] (H-GFCWKVCVYRNGVRVCYRRCN-OH; disulfide 3-20, 7-16 (inferred); N-terminus and C-terminus assumed) | 0.36 |
| CC(C)[C@@H]1NC(=O)CNC(=O)[C@H](CC(N)=O)NC(=O)[C@H](CCCNC(=N)N)NC(=O)[C@H](Cc2ccc(O)cc2)NC(=O)[C@H](C(C)C)NC(=O)[C@@H]2CSSC[C@H](NC(=O)[C@H](C(C)C)NC(=O)[C@H](CCCNC(=N)N)NC1=O)C(=O)N[C@@H](Cc1ccc(O)cc1)C(=O)N[C@@H](CCCNC(=N)N)C(=O)N[C@@H](CCCNC(=N)N)C(=O)N[C@H](C(=O)N[C@@H](CC(N)=O)C(=O)O)CSSC[C@H](NC(=O)[C@H](Cc1ccccc1)NC(=O)CN)C(=O)N[C@@H](Cc1c[nH]c3ccccc13)C(=O)N[C@@H](CC(N)=O)C(=O)N[C@@H](C(C)C)C(=O)N2 [compound 11] (H-GFCWNVCVYRNGVRVCYRRCN-OH; disulfide 3-20, 7-16 (inferred); N-terminus and C-terminus assumed) | 0.27 |
| CC(C)[C@@H]1NC(=O)CNC(=O)[C@H](CC(N)=O)NC(=O)[C@H](CCCNC(=N)N)NC(=O)[C@H](Cc2ccc(O)cc2)NC(=O)[C@H](C(C)C)NC(=O)[C@@H]2CSSC[C@H](NC(=O)[C@H](C(C)C)NC(=O)[C@H](CCCNC(=N)N)NC1=O)C(=O)N[C@@H](Cc1ccc(O)cc1)C(=O)N[C@@H](CCCNC(=N)N)C(=O)N[C@@H](CCCNC(=N)N)C(=O)N[C@H](C(=O)N[C@@H](CC(N)=O)C(=O)O)CSSC[C@H](NC(=O)[C@H](Cc1ccccc1)NC(=O)CN)C(=O)N[C@@H](Cc1c[nH]c3ccccc13)C(=O)N[C@@H](Cc1ccc(O)cc1)C(=O)NCC(=O)N2 [compound 15] (H-GFCWYGCVYRNGVRVCYRRCN-OH; disulfide 3-20, 7-16 (inferred); N-terminus and C-terminus assumed) | 0.04 |
| CC(C)[C@@H]1NC(=O)CNC(=O)[C@H](CC(N)=O)NC(=O)[C@H](CCCNC(=N)N)NC(=O)[C@H](Cc2ccc(O)cc2)NC(=O)[C@H](C(C)C)NC(=O)[C@@H]2CSSC[C@H](NC(=O)[C@H](C(C)C)NC(=O)[C@H](CCCNC(=N)N)NC1=O)C(=O)N[C@@H](Cc1ccc(O)cc1)C(=O)N[C@@H](CCCNC(=N)N)C(=O)N[C@@H](CCCNC(=N)N)C(=O)N[C@H](C(=O)N[C@@H](CC(N)=O)C(=O)O)CSSC[C@H](NC(=O)[C@H](Cc1ccccc1)NC(=O)CN)C(=O)N[C@@H](Cc1c[nH]c3ccccc13)C(=O)N[C@@H](Cc1ccc(O)cc1)C(=O)N[C@@H](CO)C(=O)N2 [compound 19] (H-GFCWYSCVYRNGVRVCYRRCN-OH; disulfide 3-20, 7-16 (inferred); N-terminus and C-terminus assumed) | 0.11 |
| CC(C)[C@@H]1NC(=O)CNC(=O)[C@H](CC(N)=O)NC(=O)[C@H](CCCNC(=N)N)NC(=O)[C@H](Cc2ccc(O)cc2)NC(=O)[C@H](C(C)C)NC(=O)[C@@H]2CSSC[C@H](NC(=O)[C@H](C(C)C)NC(=O)[C@H](CCCNC(=N)N)NC1=O)C(=O)N[C@@H](Cc1ccc(O)cc1)C(=O)N[C@@H](CCCNC(=N)N)C(=O)N[C@@H](CCCNC(=N)N)C(=O)N[C@H](C(=O)N[C@@H](CC(N)=O)C(=O)O)CSSC[C@H](NC(=O)[C@H](Cc1ccccc1)NC(=O)CN)C(=O)N[C@@H](Cc1c[nH]c3ccccc13)C(=O)N[C@@H](Cc1ccc(O)cc1)C(=O)N[C@@H](Cc1c[nH]c3ccccc13)C(=O)N2 [compound 20] (H-GFCWYWCVYRNGVRVCYRRCN-OH; disulfide 3-20, 7-16 (inferred); N-terminus and C-terminus assumed) | 0.01 |
| CC(C)[C@@H]1NC(=O)CNC(=O)[C@H](CC(N)=O)NC(=O)[C@H](CCCNC(=N)N)NC(=O)[C@H](Cc2ccc(O)cc2)NC(=O)[C@H](C)NC(=O)[C@@H]2CSSC[C@H](NC(=O)[C@H](C(C)C)NC(=O)[C@H](CCCNC(=N)N)NC1=O)C(=O)N[C@@H](Cc1ccc(O)cc1)C(=O)N[C@@H](CCCNC(=N)N)C(=O)N[C@@H](CCCNC(=N)N)C(=O)N[C@H](C(=O)N[C@@H](CC(N)=O)C(=O)O)CSSC[C@H](NC(=O)[C@H](Cc1ccccc1)NC(=O)CN)C(=O)N[C@@H](Cc1c[nH]c3ccccc13)C(=O)N[C@@H](Cc1ccc(O)cc1)C(=O)N[C@@H](C(C)C)C(=O)N2 [compound 21] (H-GFCWYVCAYRNGVRVCYRRCN-OH; disulfide 3-20, 7-16 (inferred); N-terminus and C-terminus assumed) | 0.015 |
| CC(C)[C@@H]1NC(=O)CNC(=O)[C@H](CC(N)=O)NC(=O)[C@H](CCCNC(=N)N)NC(=O)[C@H](Cc2ccc(O)cc2)NC(=O)[C@H](Cc2c[nH]cn2)NC(=O)[C@@H]2CSSC[C@H](NC(=O)[C@H](C(C)C)NC(=O)[C@H](CCCNC(=N)N)NC1=O)C(=O)N[C@@H](Cc1ccc(O)cc1)C(=O)N[C@@H](CCCNC(=N)N)C(=O)N[C@@H](CCCNC(=N)N)C(=O)N[C@H](C(=O)N[C@@H](CC(N)=O)C(=O)O)CSSC[C@H](NC(=O)[C@H](Cc1ccccc1)NC(=O)CN)C(=O)N[C@@H](Cc1c[nH]c3ccccc13)C(=O)N[C@@H](Cc1ccc(O)cc1)C(=O)N[C@@H](C(C)C)C(=O)N2 [compound 23] (H-GFCWYVCHYRNGVRVCYRRCN-OH; disulfide 3-20, 7-16 (inferred); N-terminus and C-terminus assumed) | 0.02 |
| CC(C)[C@@H]1NC(=O)CNC(=O)[C@H](CC(N)=O)NC(=O)[C@H](CCCNC(=N)N)NC(=O)[C@H](Cc2ccc(O)cc2)NC(=O)[C@H](CO)NC(=O)[C@@H]2CSSC[C@H](NC(=O)[C@H](C(C)C)NC(=O)[C@H](CCCNC(=N)N)NC1=O)C(=O)N[C@@H](Cc1ccc(O)cc1)C(=O)N[C@@H](CCCNC(=N)N)C(=O)N[C@@H](CCCNC(=N)N)C(=O)N[C@H](C(=O)N[C@@H](CC(N)=O)C(=O)O)CSSC[C@H](NC(=O)[C@H](Cc1ccccc1)NC(=O)CN)C(=O)N[C@@H](Cc1c[nH]c3ccccc13)C(=O)N[C@@H](Cc1ccc(O)cc1)C(=O)N[C@@H](C(C)C)C(=O)N2 [compound 24] (H-GFCWYVCSYRNGVRVCYRRCN-OH; disulfide 3-20, 7-16) | 0.15 |
| CC(C)[C@@H]1NC(=O)CNC(=O)[C@H](CC(N)=O)NC(=O)[C@H](CCCNC(=N)N)NC(=O)[C@H](Cc2ccc(O)cc2)NC(=O)[C@H](Cc2ccc(O)cc2)NC(=O)[C@@H]2CSSC[C@H](NC(=O)[C@H](C(C)C)NC(=O)[C@H](CCCNC(=N)N)NC1=O)C(=O)N[C@@H](Cc1ccc(O)cc1)C(=O)N[C@@H](CCCNC(=N)N)C(=O)N[C@@H](CCCNC(=N)N)C(=O)N[C@H](C(=O)N[C@@H](CC(N)=O)C(=O)O)CSSC[C@H](NC(=O)[C@H](Cc1ccccc1)NC(=O)CN)C(=O)N[C@@H](Cc1c[nH]c3ccccc13)C(=O)N[C@@H](Cc1ccc(O)cc1)C(=O)N[C@@H](C(C)C)C(=O)N2 [compound 25] (H-GFCWYVCYYRNGVRVCYRRCN-OH; disulfide 3-20, 7-16 (inferred); N-terminus and C-terminus assumed) | 0.02 |
